In paper PMC3520603 (Journal of biomolecular screening, 2012):
Where a name gives a salt, the structure may show the parent alone. Read-outs that look alike come from different tables or passages of the source.

Key:
Assay type in all cases: binding
[1] = biological target: T1, RVFV nucleocapsid N protein (Rift valley fever virus, UniProt P21700); assay: biochemical
[2] = biological target: T1, RVFV nucleocapsid N protein
[3] = biological target: T1, RVFV nucleocapsid N protein; assay: biochemical; remark: listed apart in the source

T1 sequence (P21700 whole entry, looked up): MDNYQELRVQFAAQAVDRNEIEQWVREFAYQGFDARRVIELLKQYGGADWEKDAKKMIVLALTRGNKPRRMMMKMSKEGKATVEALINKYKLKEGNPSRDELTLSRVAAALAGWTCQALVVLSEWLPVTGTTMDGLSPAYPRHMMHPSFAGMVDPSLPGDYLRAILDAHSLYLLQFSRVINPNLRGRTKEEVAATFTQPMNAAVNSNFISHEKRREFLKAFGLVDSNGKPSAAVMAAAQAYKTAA

Compound	Avg. Hill slope [1]	IC50 [1] [µM]	Percent Inhibition HTS [2] [%]	Avg. Hill slope [3]	IC50 [3] [µM]
Br.CN=c1nc(-c2ccccc2)n(-c2ccccc2)s1 [S 4063]	−1.64	6.7 ± 2.9	50.3	–	–
CCN(CC)CCCC(C)Nc1c2ccc(Cl)cc2nc2ccc(OC)cc12 (stereo not shown) [quinacrine dihydrochloride]	–	–	65.7	−2.99	162 ± 26
Cc1ccc(C(=O)Nc2ccc(S(=O)(=O)O)c3cc(S(=O)(=O)O)cc(S(=O)(=O)O)c23)cc1NC(=O)c1cccc(NC(=O)Nc2cccc(C(=O)Nc3cc(C(=O)Nc4ccc(S(=O)(=O)O)c5cc(S(=O)(=O)O)cc(S(=O)(=O)O)c45)ccc3C)c2)c1 [suramin sodium salt]	−2.76	16.3 ± 7.3	93.3	–	–
CC[C@@]1(O)C(=O)OCc2c1cc1n(c2=O)Cc2cc3c(CN(C)C)c(O)ccc3nc2-1 [topotecan]	–	–	85.9	–	–
